Source: patent US7384959B2, “Treatment of convulsive states” (priority 1999, dated 2008)
Marks after values point to notes of the source that are not given here.

System: rat
Assay: barbital interaction (sleep induction) test
Type: in vivo
Conditions: for NUMBER OF RATS SLEEPING: 10 rats per group; for SLEEP DURATION mean ± s.e.m.: maximum 6 hours after barbital injection
Source text: The following Tables report the results of the Irwin, PTZ and barbital interaction (sleep induction) tests. Description of these tests may be found in Psychopharmacologica, 13:222-257 (1968), Krall et al, Epilepsia 19:409-428 (1978), and Simon et al, J. Pharmacol, Paris 13:241-252 (1982). See also Roux et al, Phoenix international Pharmacology Reports Nos. D30.2061/2 and D99.021/2.
In Table 3, the following apply: Student's t Test: NS=Not Significant; *=p<0.05; **=p<0.01; ***=<0.001 Fisher's Exact Test: (number of rats sleeping) No indication=Not Significant; +=p<0.05; ++=p<0.01; +++=p<0.001 • (#): maximum=6 hours after barbital injection (taken 50 minutes after barbital injection).

In the case of `COC(=O)[C@@H](c1ccccc1)[C@@H]1CCCCN1` [l-MPH, l-threo-Methylphenidate], the “SLEEP DURATION % change from control” value (0.5 mg/kg s.c. −30 min) is reported as “+3%”, the “NUMBER OF RATS SLEEPING” value (0.5 mg/kg s.c. −30 min) is reported as 9 and the “SLEEP DURATION mean ± s.e.m.” value (0.5 mg/kg s.c. −30 min) is reported as 63.8 ± 18.5 NS min. The “SLEEP DURATION % change from control” value (2 mg/kg s.c. −30 min) was −85%, the “NUMBER OF RATS SLEEPING” value (2 mg/kg s.c. −30 min) was 4 + and the “SLEEP DURATION mean ± s.e.m.” value (2 mg/kg s.c. −30 min) was 9.5 ± 6.4** min. For the same molecule, the “SLEEP DURATION % change from control” value (4 mg/kg s.c. −30 min) was −93%, the “NUMBER OF RATS SLEEPING” value (4 mg/kg s.c. −30 min) was 6 and the “SLEEP DURATION mean ± s.e.m.” value (4 mg/kg s.c. −30 min) was 4.3 ± 2.3*** min. For the same molecule, the “SLEEP DURATION % change from control” value (8 mg/kg s.c. −30 min) was −79%, the “NUMBER OF RATS SLEEPING” value (8 mg/kg s.c. −30 min) was 1 +++ and the “SLEEP DURATION mean ± s.e.m.” value (8 mg/kg s.c. −30 min) was 13.3 ± 13.3 min. The “effect on barbital-induced sleep” value (rat, in vivo) was “antagonise barbital-induced sleep”.
